We go through three compounds from patent US6743812B1, “Pharmaceutical compositions and methods for use” (Targacept, Inc., priority 2000, dated 2004).

The target in one series is CNS nicotinic receptors (Rattus norvegicus, UniProt P09483+P12390). The series can be described thus: Determination of binding to relevant receptor sites. Conditions: binding to certain CNS nicotinic receptors; read-out: Ki (inhibition constant, calculated from IC50 by the method of Cheng et al.). The protocol:
Determination of Binding to Relevant Receptor Sites
Binding of the compounds to relevant receptor sites was determined in accordance with the techniques described in U.S. Pat. No. 5,597,919 to Dull et al. Inhibition constants (Ki values), reported in nM, were calculated from the IC50 values using the method of Cheng et al., Biochem, Pharnacol. 22:3099 (1973).

The nature of the next series: Water solubility of salt. It is filed as physicochemical.
Series [1] can be described thus: Physical and chemical stability of salt. The format is physicochemical.
Series [2] is described as follows: Water absorption (hygroscopicity) of salts. The format is physicochemical.

CNS nicotinic receptors, sequence (P09483 31-630): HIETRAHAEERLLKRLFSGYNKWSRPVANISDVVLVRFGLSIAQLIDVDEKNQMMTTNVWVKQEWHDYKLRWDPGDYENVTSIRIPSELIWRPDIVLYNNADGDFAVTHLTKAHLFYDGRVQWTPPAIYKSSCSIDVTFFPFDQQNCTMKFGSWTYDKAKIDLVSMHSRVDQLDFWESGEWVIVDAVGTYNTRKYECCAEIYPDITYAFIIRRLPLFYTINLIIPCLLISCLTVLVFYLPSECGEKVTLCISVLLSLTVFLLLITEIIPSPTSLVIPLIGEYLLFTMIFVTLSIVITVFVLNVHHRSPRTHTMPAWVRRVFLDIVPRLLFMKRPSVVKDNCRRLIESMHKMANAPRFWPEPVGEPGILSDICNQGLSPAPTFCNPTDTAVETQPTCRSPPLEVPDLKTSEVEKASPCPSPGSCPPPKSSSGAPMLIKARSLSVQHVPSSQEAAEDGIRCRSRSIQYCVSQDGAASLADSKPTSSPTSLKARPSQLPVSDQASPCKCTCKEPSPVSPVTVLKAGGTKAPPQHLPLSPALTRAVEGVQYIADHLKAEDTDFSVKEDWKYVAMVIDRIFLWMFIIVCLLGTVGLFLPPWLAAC
CNS nicotinic receptors, sequence (P12390 25-500): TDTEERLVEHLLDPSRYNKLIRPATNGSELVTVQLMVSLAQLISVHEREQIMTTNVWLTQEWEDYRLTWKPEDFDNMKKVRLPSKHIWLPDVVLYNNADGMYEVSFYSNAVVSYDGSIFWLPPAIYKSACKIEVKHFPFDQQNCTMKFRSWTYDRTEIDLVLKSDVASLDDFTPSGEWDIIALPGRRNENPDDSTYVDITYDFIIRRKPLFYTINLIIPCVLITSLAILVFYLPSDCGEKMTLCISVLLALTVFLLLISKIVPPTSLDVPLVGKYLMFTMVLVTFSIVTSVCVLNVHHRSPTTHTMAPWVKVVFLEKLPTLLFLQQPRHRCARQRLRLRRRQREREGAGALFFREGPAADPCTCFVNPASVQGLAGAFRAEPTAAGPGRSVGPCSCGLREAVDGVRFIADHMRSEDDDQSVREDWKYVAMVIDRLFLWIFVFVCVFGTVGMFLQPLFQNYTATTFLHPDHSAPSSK

Regarding `CN[C@@H](C)C/C=C/c1cncc(OC(C)C)c1` [Sample No. 1, (2S)-(4E)-N-methyl-5-[3-(5-isopropoxypyridin)yl]-4-penten-2-amine hemi-(di-p-toluoyl-L-tartrate)], the Ki – broadly, the dissociation constant of the complex between target and ligand, obtained from inhibition or displacement – on CNS nicotinic receptors is 6 nM.
In the case of `CN[C@@H](C)C/C=C/c1cncc(OC(C)C)c1` [Sample No. 2, (2S)-(4E)-N-methyl-5-[3-(5-isopropoxypyridin)yl]-4-penten-2-amine hemi-(di-p-toluoyl-D-tartrate)], the water solubility entry in the series “Water solubility of salt” was “water soluble”. Moreover, in series [1], the stability entry was “physically and chemically stable”. For the same compound, in series [2] (room temperature and 90% relative humidity), the “amount of water absorbed” value is given as 3.2%. Further, the “hygroscopicity compared with other salts” value in series [2] (single salt: versus corresponding salt derived from galactaric acid (mucic acid)) was “less hygroscopic”. Further, the Ki at CNS nicotinic receptors is 5 nM.
With `CN[C@@H](C)C/C=C/c1cncc(OC(C)C)c1.CN[C@@H](C)C/C=C/c1cncc(OC(C)C)c1.O=C(O)[C@@H](O)[C@H](O)[C@H](O)[C@@H](O)C(=O)O` [hemigalactarate of (2S)-(4E)-N-methyl-5-[3-(5-isopropoxypyridin)yl)]-4-penten-2-amine, reference compound], in series [2] (40° C. and 70% relative humidity), the “amount of water absorbed” value is 11.8%.
